Measurements from a melting point compilation (Tetko et al.; mined from patent text by program, amines drawn as free bases though some values may be those of a salt).

melting point [°C]	Structure (SMILES)
144 to 145	Cc1nc(C(N)=O)n(-c2ccc(Cl)c(Cl)c2)c1Cl
230 to 231	CC(C)(C)c1cc(C(=O)c2c[nH]c(SC#N)c2)cc(C(C)(C)C)c1O
154 to 158	Cc1ccc2c(c1)C1CN(CCCC(=O)c3ccc(F)cc3)CCC1N2 (centres undefined)
183 to 184	CCCN=C(N)Nc1ccnc(OCCCO)n1
165	COc1cccc2c(=O)cc(N3CCOCC3)oc12
163	CC1(C)CS(=O)(=O)CC(C)(C)N1Cl
141 to 144	Cc1ccc(-c2c(Cl)ncnc2NS(=O)(=O)c2ccc(C(C)(C)COC3CCCCO3)cc2)cc1 (centres undefined)
226 to 229	O=C(CCC(=O)Sc1ccc(O)cc1)Sc1ccc(O)cc1
168 to 170	COC(=O)c1ccc(CNc2cc(-c3cc4cc(F)c(F)cc4[nH]3)ccc2OC)cc1
166 to 168	CC[Si](CC)(CC)c1ccc2c(c1)cc(C(=O)Nc1ccc(N3CCC3)nc1)n2Cc1cccc(F)c1
169	CC(=O)c1ccccc1NC(C(N)=O)c1c(Cl)cccc1Cl (centres undefined)
128 to 130	O=C1CCC(N2C(=O)c3cccc(OCc4ccc(CN5CCN6N=C(C(F)(F)F)NC6C5)cc4)c3C2=O)C(=O)N1 (centres undefined)
130 to 131	CC1(C)Cc2sccc2C=[N+]1[O-]
97 to 98	CCOC(=O)COC1CCN(C(=O)[C@H](C)CC(=O)c2ccc(C#N)cc2)CC1
70 to 71	CC(C)=CCC/C(C)=C/COCC(=O)c1cc(C(C)C)c(O)c(C(C)C)c1
90 to 92	Nc1sc2c(c1C(=O)c1ccc(F)cc1)CCN(C(=O)OCc1ccccc1)C2
132 to 133	O=C1C(=O)N(CCCCN2CCN(C(c3ccccc3)c3ccccc3)CC2)c2ccc(Br)cc21
113 to 116	C=C(C(N)=O)N1CCC(c2ccc(OC(C)=O)c(OC)c2)C1c1ccccc1 (centres undefined)
167	COC(=O)c1cc(-c2ccc(Cl)cc2)n(-c2ccc(Cl)cc2Cl)n1
179 to 182	Cc1ccccc1NC(=O)Nc1ccc(C(=O)N2CCCCc3sccc32)cc1
203 to 204	O=C(Nc1ccc2c(c1)NCCC2)c1cc2cc(C(F)(F)F)ccc2n1Cc1cccc(F)c1

melting point [°C]	Structure (SMILES)
180 to 181	CN=C1N(c2c(C)cccc2C)CCN1c1c(C)cccc1C
270	O=C(NCCCCN1CCC(c2ccc3ccccc3c2)CC1)c1ccc(NC(=O)c2ccc(Cl)cc2)cc1
107 to 108	Cn1nc(Cl)cc(Br)c1=O
122 to 124	Cc1cn(C(C)(C)C(=O)N(C)C)nc1-c1ccc(Cl)cc1
221 to 223	COc1ccc(-c2c3c(cc4ccc5c(c24)OCO5)C(=O)OC3)cc1OC
210 to 220	Cc1ccccc1C(=O)CN1C(=O)C(NC(=O)Nc2cccc(C(=O)NS(C)(=O)=O)c2)CN(c2ccccc2)c2ccccc21 (centres undefined)
106 to 108	CCOc1cc2c(cc1OCC)C(C(S)(C#N)CCC(=O)O)=NCC2 (centres undefined)
93 to 95	COC(=O)C1CN=CN(C)C1 (centres undefined)
117 to 119	COc1cc(N)c(C(N)=O)c(OC)c1
160 to 176	CCOc1ccccc1C(=O)Nc1ccc(C(=O)N2Cc3cccn3Cc3ccccc32)cc1
255 to 258	Cc1nc2cnccc2n1-c1ccc(OCc2cccc(C(=O)O)c2)cc1
230 to 235	CC1(C)Cc2c(c(O)cc3c2C(c2cccc(Br)c2)=NCC3(C)C)O1
> 240	COC(=O)CCCCN(CCc1cc(-c2ccc(F)cc2F)ccc1OCc1ccc(-c2ccc(C(F)(F)F)cc2)cc1)Cc1ccc(C(=O)OC)cc1
88 to 89	CCCCc1nc(Cl)c(C=O)n1Cc1ccc([N+](=O)[O-])cc1
> 250	N#Cc1c[nH]c2cc(F)c(OCc3ccccc3)cc2c1=O
151 to 154	CCCCNC(=O)NS(=O)(=O)c1c(SC)cccc1SC
108 to 113	O[C@@H](CNCCOc1ccc2oc(-c3noc(C(F)(F)F)n3)cc2c1)COc1ccccc1
168	O=C(O)CN1C(=O)C(=Cc2ccc(OCCc3ccccc3)c(OC(c3ccccc3)C(F)(F)F)c2)SC1=S (centres undefined)
63 to 65	C=CCON=C(CC)C1=C(O)CC(c2c(C)c(C)c3c(c2C)CC(C)(C)C3)CC1=O (centres undefined)
127 to 129	COC(=O)c1c(-c2cccc([N+](=O)[O-])c2)cc(-c2ccccc2)nc1C
214	O=C(O)c1ccnc(Br)c1

melting point [°C]	Structure (SMILES)
129 to 130	Cc1cc(C#N)cc(C(=O)c2nc(OCc3ccccc3)nc(OCc3ccccc3)c2C(C)C)c1
116 to 117	Clc1ccc(COC(CNc2ccc(Cl)c(Cl)c2)Cn2ccnc2)c(Cl)c1 (centres undefined)
171 to 172	CCN(CC)CCCNc1nnc(C)c2c1cc1n2CCCC1
272 to 274	CSc1ccccc1-c1cc2c(ccn2C)c2c1C(=O)NC2=O
122 to 123	COCC(=O)c1cnc2c(OC)cccc2c1Nc1ccccc1C
225 to 227	COc1cc(Cl)nc(NC(=O)NS(=O)(=O)c2ccccc2-c2nnnn2C)n1
86 to 87	CCc1nc2ccc(F)cc2c(OC(=O)C2CC2)c1C
157 to 160	CC(C)CC(=O)Nc1cccc(-c2ccnc3c(-c4ccc(-c5ccccc5)cc4)cnn23)c1
109 to 113	CCC1OC(Cn2cncn2)(c2ccc(Cl)cc2Cl)OC1C (centres undefined)
177 to 179	Cn1c(C(F)(F)F)cc(=O)n(-c2cc(Oc3ncccc3[N+](=O)[O-])c(Cl)cc2F)c1=O
202 to 204	Cn1nc(S(C)(=O)=O)c(=O)c2ccccc21
164	CCc1noc(-c2ccc(OCCC3CN(c4ccc(Cl)nn4)CCO3)cc2)n1 (centres undefined)
146 to 147	CCCCOc1ccc2[nH]n(Cc3ccccc3)c(=O)c2c1
180 to 181	COCC(C)n1nc(-c2cnc(N)nc2-c2ccccc2)ccc1=O (centres undefined)
205 to 207	Cn1c(=O)c2c(ncn2CCCN2CCN(c3nccnc3Cl)CC2)n(C)c1=O
77.8	Cc1ccc2c(-c3ccccc3)onc2c1
136 to 137	Cc1ccc(C2c3c(C)c(N4CCN(c5cccnc5)CC4)c(C)c(C)c3OC2(C)C)cc1 (centres undefined)
170 to 174	COc1ccc(-c2csc(Nc3ccccc3)n2)cc1OC
149 to 151	CN(CCc1ccccc1)S(=O)(=O)CC(=O)NO
166 to 168	C#CCN1C(=O)COc2cc(F)c(-c3ccc(C(F)(F)F)n(C)c3=O)cc21
143	COc1ccc(S(=O)(=O)Nc2nc(-c3cccc([N+](=O)[O-])c3)c(CN3CCOCC3)s2)cc1OC

Structure (SMILES)	melting point [°C]
Fc1cc(F)c2[nH]c3c(c2c1)CC(N1CCCCC1)CC3 (centres undefined)	> 290
CC(=O)OC1CC2CCC3C(CCC4(C)C(O)C(N5CCCC5)CC34)C2(C)CC1N1CCOCC1 (centres undefined)	112 to 118
COC1([N+](=O)[O-])C=C([N+](=O)[O-])C=CC1O (centres undefined)	68 to 70
COC12CC(CCCO)CN(C)C1Cc1c[nH]c3cccc2c13 (centres undefined)	190 to 195
O=C1OCC2Cc3ccccc3OC12 (centres undefined)	107 to 111
N#Cc1cc(Cl)c(NC(=O)NC(=O)c2ccccc2Cl)cc1Cl	244 to 247
